Experiment [1] deals with resistant M. tuberculosis strains. Type of experiment: cell-based.
Experiment [2] concerns M. tuberculosis overexpressing ethA. Type of experiment: cell-based.

The structures appear in SMILES notation.

Take `COc1ccc(-c2nsc(SCC(=O)NC3CCCC3)n2)cc1` [Compound I-12]: in experiment [1], the “concentration in presence of which resistant strains were grown” value turned out to be 80 µM and the “increase compared to the susceptible WT strain” value turned out to be 64 fold. Further, in experiment [2], the “increased susceptibility as compared to the parent WT strain” value is “at least 4 fold”.

In the case of `O=C(CSc1nc(-c2ccccc2)no1)NC1CCCC1` [Compound I-28], the “activity in the ethA overexpression strain compared to WT M. tuberculosis” value in experiment [2] was “increased activity in the ethA overexpression strain”.

As for `O=C(CSc1nc(-c2ccccc2)no1)NC1CCCC1` [Compound I-31], in experiment [2], the “activity in the ethA overexpression strain compared to WT M. tuberculosis” value was “did not show an increased activity”.

The values above are taken from patent publication US12472166B2, “Inhibition of mycobacterial type VII secretion” (priority 2019, dated 2025).
